Laboratory results published in patent publication US20110230431A1, “FOSFOMYCIN/TOBRAMYCIN COMBINATIONS FOR THE TREATMENT AND PREVENTION OF OPHTHALMIC, OTOLOGICAL AND DERMATOLOGICAL INFECTIONS” (Gilead Sciences, Inc., priority 2008, published 2011).
Where two headings read alike, the source gives them in different places.

Columns and labels:
E. coli [1] = assay: MIC by agar plate dilution method (CLSI); type: cell-based, Escherichia coli; conditions: Escherichia coli, read-out: MIC
Text: P. aeruginosa strains isolated from patients with cystic fibrosis (CF) were obtained from Children's Hospital and Regional Medical Center (Seattle, Wash.). Clinical isolates of Escherichia coli and Staphylococcus aureus were obtained from The Jones Group Laboratories (JMI; North Liberty, Iowa) and The Clinical Microbiology Institute (CMI; Wilsonville, Oreg.). P. aeruginosa 27853, S. aureus 29213, and E. coli 25922 served as quality control strains^1 and were obtained from The America Type Culture Collection (ATCC; Manassas, Va.). P. aeruginosa ATCC 27853, a fosfomycin and tobramycin susceptible strain, was used in macromolecular biosynthesis and tobramycin uptake experiments. Stock cultures were maintained at −80° C. in Cation-Adjusted Mueller-Hinton Broth (CAMHB) (Remel; Lenexa, Kans.) supplemented with 20% glycerol (VWR: West Chester, Pa.). Cultures for routine use were grown on tryptic soy agar plates+5% sheeps blood (PML Microbiologicals Inc.; Wilsonville, Oreg.) and stored at 4° C.
MICs were determined by the agar plate dilution method according to CLSI guidelines (National Committee for Clinical Laboratory Standards. M7-A6. 6th ed. Villanova (Pa.): NCCLS, 2003; M100-S14. Villanova (Pa.): NCCLS, 2004).

S. aureus = type: cell-based, Staphylococcus aureus
Procedure: (§1) Development of resistance after a single exposure to antibiotic was determined for both clinical and reference isolates of P. aeruginosa, S. aureus, and E. coli. Late Log-phase cultures were centrifuged at 1,400×g at room temperature for 20 min and the cell pellets resuspended in CAMHB. […] The culture plates were incubated at 37° C. for 48 h and the number of colonies on each plate was enumerated manually. The spontaneous mutation frequency (SMF) resulting in antibiotic resistance was calculated by dividing the number of bacteria growing at the defined antibiotic concentration by the number of bacteria in the inoculum (Martinex, J L, Antimicrob Agents Chemother 2000; 44 (1):1771-1777).

E. coli [2] = type: cell-based, Escherichia coli
Procedure: as §1

[3] = test system: Protein Synthesis in P. aeruginosa ATCC 27853; assay: Macromolecular biosynthesis: 3H-amino acid incorporation; type: cell-based, Pseudomonas aeruginosa
Procedure: (§2) Picataway, N.J.) and N-acetyl-D-Glucosamine (^3H-NAG) (GE Healthcare Bio-Sciences), respectively (Baum, E Z, Antimicrob Agents Chernother 2001; 45 (11): 3182-3188). A single colony of P. aeruginosa ATCC 27853 was inoculated into 10 mL of CAMHB and incubated for 16 h, at 37° C., 200 rpm in a shaking water bath. […] At various time points, 100 μl aliquots (triplicate) of culture were removed and added to 100 μl of 20% TCA (VWR) in 96-well flat bottom trays (VWR). Plates were incubated on crushed ice for 60 min to precipitate the incorporated ^3H-precursors. Samples were harvested onto glass fibre filters (GFC) (PerkinElmer; Waltham, Mass.). Filters were washed two times with 35 mL of normal saline to remove unincorporated isotope followed by one wash with 35 mL of 90% ETOH (VWR). Filters were dried under a lamp for 1 h to reduce remaining moisture and then sealed in bags containing 5 mL of scintillation cocktail (Betaplate Scint; PerkinElmer). Counts per minute (CPM) were determined using a Wallac MicroBeta Trilux (PerkinElmer). Mean CPM±standard deviation (SD) were determined for each treatment group. Background counts consisting of a media-only sample were subtracted from the no-drug and antibiotic treatment groups. The percent inhibition of incorporation was determined relative to the no-drug controls. The activities of the three drugs were compared by calculating the time to 50% inhibition (T1/2), and statistical differences at each time point were evaluated by the Analysis of Variance (ANOVA; GraphPad Prisma software package 3.03; GraphPad Software, Inc., San Diego, Calif.). Each curve represents 4 replicate experiments, each time point performed in triplicate.

[4] = test system: Cell Wall Synthesis in P. aeruginosa ATCC 27853; assay: Macromolecular biosynthesis: 3H-N-acetyl-D-glucosamine incorporation; type: cell-based, Pseudomonas aeruginosa; conditions: Pseudomonas aeruginosa, ATCC27853, at 2 h relative to no-drug control, single experiment
Procedure: as §2

P. aeruginosa ATCC 27853 = assay: Time-kill experiments in CAMHB with 2% mucin; type: cell-based, Pseudomonas aeruginosa
Procedure: Time-kill experiments were performed according to a modified CLSI method (National Committee for Clinical Laboratory Standards. M-26A. Villanova (Pa.): NCCLS, 1999). […] Bacterial cultures and antibiotic(s) were incubated at 37° C. in a shaking water bath (200 rpm) and killing activity assessed at 0, 1, 2, 4, 6 and 24 h. Antibiotics that reduced the original inoculum by ≧3-Log10 were considered bactericidal. Antibiotics that reduced the original inoculum by ≦2-Log10 were considered bacteriostatic.

## C[C@@H]1O[C@@H]1P(=O)(O)O [Fosfomycin, fosfomycin disodium]
E. coli [1]; ATCC25922, E. coli ATCC 25922
  MIC: 2 µg/mL
E. coli [1]; E. coli C032
  MIC: 1 µg/mL
E. coli [1]; E. coli C036
  MIC: 2 µg/mL
E. coli [1]; E. coli C037
  MIC: 1 µg/mL
E. coli [1]; E. coli C294
  MIC: 0.5 µg/mL
S. aureus; S. aureus ATCC 29213, 4× MIC
  Frequency of Resistance 4× MIC: 2.6 × 10^−8
S. aureus; S. aureus ATCC 29213, 8× MIC
  Frequency of Resistance 8× MIC: 5.0 × 10^−8
S. aureus; S. aureus ATCC 29213, 16× MIC
  Frequency of Resistance 16× MIC: <1.8 × 10^−10
S. aureus; S. aureus C051, 4× MIC
  Frequency of Resistance 4× MIC: 3.0 × 10^−5
S. aureus; S. aureus C051, 8× MIC
  Frequency of Resistance 8× MIC: 3.6 × 10^−7
S. aureus; S. aureus C051, 16× MIC
  Frequency of Resistance 16× MIC: 8.4 × 10^−6
S. aureus; S. aureus C053, 4× MIC
  Frequency of Resistance 4× MIC: 7.7 × 10^−3
S. aureus; S. aureus C053, 8× MIC
  Frequency of Resistance 8× MIC: 1.7 × 10^−7
S. aureus; S. aureus C053, 16× MIC
  Frequency of Resistance 16× MIC: 4.3 × 10^−6
S. aureus; S. aureus C055, 4× MIC
  Frequency of Resistance 4× MIC: 2.5 × 10^−6
S. aureus; S. aureus C055, 8× MIC
  Frequency of Resistance 8× MIC: <4.3 × 10^−9
S. aureus; S. aureus C055, 16× MIC
  Frequency of Resistance 16× MIC: 8.2 × 10^−6
S. aureus; S. aureus C057, 4× MIC
  Frequency of Resistance 4× MIC: 2.1 × 10^−5
S. aureus; S. aureus C057, 8× MIC
  Frequency of Resistance 8× MIC: 1.1 × 10^−7
S. aureus; S. aureus C057, 16× MIC
  Frequency of Resistance 16× MIC: 2.0 × 10^−7
E. coli [2]; E. coli ATCC 25922, 4× MIC
  Frequency of Resistance 4× MIC: 1.9 × 10^−5
E. coli [2]; E. coli ATCC 25922, 8× MIC
  Frequency of Resistance 8× MIC: 6.0 × 10^−6
E. coli [2]; E. coli ATCC 25922, 16× MIC
  Frequency of Resistance 16× MIC: 2.5 × 10^−5
E. coli [2]; E. coli C032, 4× MIC
  Frequency of Resistance 4× MIC: 4.4 × 10^−5
E. coli [2]; E. coli C032, 8× MIC
  Frequency of Resistance 8× MIC: 7.8 × 10^−5
E. coli [2]; E. coli C032, 16× MIC
  Frequency of Resistance 16× MIC: 2.1 × 10^−6
E. coli [2]; E. coli C036, 4× MIC
  Frequency of Resistance 4× MIC: 1.1 × 10^−6
E. coli [2]; E. coli C036, 8× MIC
  Frequency of Resistance 8× MIC: 2.3 × 10^−6
E. coli [2]; E. coli C036, 16× MIC
  Frequency of Resistance 16× MIC: 3.4 × 10^−6
E. coli [2]; E. coli C037, 4× MIC
  Frequency of Resistance 4× MIC: 1.9 × 10^−6
E. coli [2]; E. coli C037, 8× MIC
  Frequency of Resistance 8× MIC: 2.9 × 10^−6
E. coli [2]; E. coli C037, 16× MIC
  Frequency of Resistance 16× MIC: 8.6 × 10^−6
E. coli [2]; E. coli C294, 4× MIC
  Frequency of Resistance 4× MIC: 7.9 × 10^−5
E. coli [2]; E. coli C294, 8× MIC
  Frequency of Resistance 8× MIC: 5.4 × 10^−5
E. coli [2]; E. coli C294, 16× MIC
  Frequency of Resistance 16× MIC: 6.3 × 10^−5
[3]; 6.4 μg/mL (FIG. 5)
  time to 50% inhibition (T1/2) of protein synthesis: 2.42 h
[3]; Pseudomonas aeruginosa, ATCC27853, 3.2 μg/mL, at 2 h relative to no-drug control, single experiment
  inhibition at 3.2 µg/mL: 0%
[3]; Pseudomonas aeruginosa, ATCC27853, 6.4 μg/mL, at 2 h relative to no-drug control, single experiment
  inhibition at 6.4 µg/mL: 21%
[3]; Pseudomonas aeruginosa, ATCC27853, 12.8 μg/mL, at 2 h relative to no-drug control, single experiment
  inhibition at 12.8 µg/mL: 9%
[4]; 3.2 μg/mL
  inhibition at 3.2 µg/mL: 8%
[4]; 6.4 μg/mL
  inhibition at 6.4 µg/mL: 14%
[4]; 12.8 μg/mL
  inhibition at 12.8 µg/mL: 3%
P. aeruginosa ATCC 27853; 24 h, FT4:1 16 μg/mL, fosfomycin 12.8 μg/mL, tobramycin 3.2 μg/mL, mucin, FIG. 4
  killing activity at 24 h: re-growth of the bacterial culture
P. aeruginosa ATCC 27853; FT4:1 at 4×MIC (16 μg/mL), component weights fosfomycin 12.8 μg/mL, tobramycin 3.2 μg/mL, mucin, FIG. 4
  killing activity: bacteriostatic killing
P. aeruginosa ATCC 27853; multiples of the MIC, FIG. 1-3
  killing activity (bactericidal ≧3-Log10, bacteriostatic ≦2-Log10): bacteriostatic
